Target: T1, steroid 5α-reductase (Homo sapiens, UniProt P31213)
T1 construct: Microsomal preparations of the steroid 5α-reductase enzyme (protein) were obtained from human prostate tissue; from tissue; host or cells: human prostate tissue (microsomal preparation)
T1 sequence (P31213 1-254): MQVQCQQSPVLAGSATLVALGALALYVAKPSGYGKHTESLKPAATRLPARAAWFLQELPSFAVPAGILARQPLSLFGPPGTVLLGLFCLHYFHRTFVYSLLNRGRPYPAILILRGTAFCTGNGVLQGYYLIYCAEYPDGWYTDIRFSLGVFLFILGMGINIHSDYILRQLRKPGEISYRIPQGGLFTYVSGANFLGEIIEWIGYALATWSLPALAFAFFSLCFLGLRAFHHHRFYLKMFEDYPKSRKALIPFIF
Experiment: 5α-reductase inhibition test with human prostate microsomal preparations (conversion of 1,2-³H-testosterone to dihydrotestosterone, HPLC)
Format: biochemical
Method: Microsomal preparations of the steroid 5α-reductase enzyme (protein) were obtained from human prostate tissue and stored in aliquots. Protein concentration was determined prior to use of the samples. In the method itself, individual assays for 5α-reductase activity contained 0.1M phosphate citrate buffer, pH 5.6, 1mM EDTA, 7 to 22 µg of microsomal protein, 1mM NADPH, 5 mM glucose-6-phosphate, 1 IU/ml glucose-6-phosphate dehydrogenase, 1,2-³H-testosterone, and test compound, dissolved in dimethyl sulfoxide and then diluted in phosphate-citrate buffer to yield a final assay concentration of 0.1% (v/v) dimethyl sulfoxide. The same buffer and the same quantity of dimethyl sulfoxide, without any test compound is used for the control assays. The total assay volume was 100 µl and assays were performed in duplicate. The reaction was initiated by the addition of the testosterone, and incubated for 30 minutes at 25°C. The assay is linear with time to 30 minutes.
Depending on the nature of the inhibition, testosterone concentration was typically varied from 0.15 µM (approximately 0.5 Km) to 10 Km with radioactive label constant at 0.15 µCi per assay. The amount of test compound added was varied to provide final concentrations of 1 nM to 100 µM. The reaction was quenched by the addition of 50 volumes of chloroform:methanol (2:1). The steroids were then extracted and separated by high pressure liquid chromatography and the amounts of testosterone and dihydrotestosterone present were determined to determine the percent conversion of testosterone to dihydrotestosterone and to calculate the 5α-reductase activity. The activity of the test compound was then expressed as the IC₅₀, or the concentration of test compound that produced a 50% inhibition of the testosterone conversion. When compounds of the present invention were tested in this way, the following results were observed: […]

SMILES | IC50 [µM]
CC(C)(C)NC(=O)[C@H]1CC[C@H]2[C@@H]3C=CC4=C(N)C(=O)CC[C@]4(C)[C@H]3CC[C@]12C [4-Amino-N-(1,1-dimethylethyl)-3-oxoandrosta-4,6-diene-17β-carboxamide] | 0.008
CC(=O)[C@H]1CC[C@H]2[C@@H]3C=CC4=C(N)C(=O)CC[C@]4(C)[C@H]3CC[C@]12C [4-Aminopregna-4,6-diene-3,20-dione] | 0.025
CC(C)N(C(=O)[C@H]1CC[C@H]2[C@@H]3C=CC4=C(N)C(=O)CC[C@]4(C)[C@H]3CC[C@]12C)C(C)C [4-Amino-N,N-bis(1-methylethyl)-3-oxoandrosta-4,6-diene-17β-carboxamide] | 0.016
